# Values of other authors, collected in patent US5070187A, “Pharmacologically effective antagonists of arginine-vasopressin” (priority 1989, dated 1991).
# Conditions: in vivo
substance,measurement,value
[8-arginine]-vasopressin,urinary clearance relative to that occurring elsewhere in the body,less than 5%
